{"source": "ChEMBL document CHEMBL4354835", "about": "“Selective Blockade of Neuronal BK (α + β4) Channels Preventing Epileptic Seizure” (J Med Chem, 2020)", "key": {"Rattus norvegicus [1]": {"species_on_record": "Rattus norvegicus", "experiment": "(§1) Inhibition of C-Fos expression in PTZ-induced epileptic seizures Sprague-Dawley rat model assessed as inhibition of FLI-positive granular neurons in DG region of contralateral hippocampus at 10 uM compound infused into hippocampal region and 10 mins later injected with PTZ and measured after 2 hrs by immunohistochemistry", "assay_type": "functional, organism-based"}, "[2]": {"target": "T1, KCNMA1/KCNMB4 (Rattus norvegicus) (UniProt Q62976+Q9ESK8)", "experiment": "Inhibition of BK alpha/beta-4 in PTZ-stimulated rat hippocampal pyramidal neurons assessed as increase in AHP size at 300 pA at -80mV holding potential measured after 10 mins by whole cell current clamp assay", "assay_type": "protein-complex assay"}, "Rattus norvegicus [3]": {"species_on_record": "Rattus norvegicus", "experiment": "(§2) Neuroprotective activity in PTZ-induced epileptic seizure Sprague-Dawley rat model assessed as inhibition of hippocampal destruction by measuring increase in Nissl stained pyramidal neurons in contralateral hippocampus CA1 region compound infused into hippocampal region and 10 mins later injected with PTZ and measured after 3 days by Nissl staining based microscopic analysis", "assay_type": "functional, organism-based"}, "[4]": {"target": "Calcium-activated potassium channel subunit beta-4 (Homo sapiens, UniProt Q86W47, Q124A)", "sequence (Q86W47 whole entry Q124A)": "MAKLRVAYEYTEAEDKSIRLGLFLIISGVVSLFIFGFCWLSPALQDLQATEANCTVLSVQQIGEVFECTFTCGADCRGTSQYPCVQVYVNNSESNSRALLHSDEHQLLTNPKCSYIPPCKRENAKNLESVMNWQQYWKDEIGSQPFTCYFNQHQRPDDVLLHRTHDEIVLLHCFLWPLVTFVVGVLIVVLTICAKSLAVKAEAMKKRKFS", "experiment": "Binding affinity to NT-495 fluorophore reagent labelled human BK beta4 Q124A mutant incubated for 30 mins by microscale thermophoresis assay"}, "Rattus norvegicus [5]": {"species_on_record": "Rattus norvegicus", "experiment": "Effect on neuronal network in PTZ-induced epileptic seizures Sprague-Dawley rat model assessed as lowered PSD at beta wave band compound infused into hippocampal region and 10 mins later injected with PTZ and measured after 2 hrs by power spectral density analysis", "assay_type": "functional, organism-based"}, "[6]": {"target": "T1, KCNMA1/KCNMB4 (Rattus norvegicus)", "experiment": "Inhibition of BK alpha/beta-4 in PTZ-stimulated rat hippocampal pyramidal neurons assessed as longer interval of interspike at -80mV holding potential measured after 10 mins during 300pA current injection by whole cell current clamp assay", "assay_type": "protein-complex assay"}, "Rattus norvegicus [7]": {"species_on_record": "Rattus norvegicus", "experiment": "as §1, with “pyramidal” for “granular”, “CA3” for “DG”", "assay_type": "functional, organism-based"}, "Rattus norvegicus [8]": {"species_on_record": "Rattus norvegicus", "experiment": "as §1, with “pyramidal” for “granular”, “CA3” for “DG”, “ipsilateral” for “contralateral”", "assay_type": "functional, organism-based"}, "Homo sapiens [9]": {"species_on_record": "Homo sapiens", "experiment": "Inhibition of human BK alpha/human beta-4 E104K mutant expressed in HEK293T cells assessed as K+ fractional outward current at 10 uM at -80 mV holding potential by whole cell patch clamp technique relative to control", "assay_type": "cell-based"}, "Rattus norvegicus [10]": {"species_on_record": "Rattus norvegicus", "experiment": "Effect on neuronal network in PTZ-induced epileptic seizures Sprague-Dawley rat model assessed as lowered PSD at alpha wave band compound infused into hippocampal region and 10 mins later injected with PTZ and measured after 2 hrs by power spectral density analysis", "assay_type": "functional, organism-based"}, "[11]": {"target": "T1, KCNMA1/KCNMB4 (Rattus norvegicus)", "experiment": "Inhibition of BK alpha/beta-4 in PTZ-stimulatedrat hippocampal pyramidal neurons assessed as reduction in neuronal firing rate at -80mV holding potential in presence of 200 to 300 pA current injection measured after 10 mins by whole cell current clamp assay", "assay_type": "protein-complex assay"}, "Rattus norvegicus [12]": {"species_on_record": "Rattus norvegicus", "experiment": "Anticonvulsant activity against PTZ-induced epileptic seizures Sprague-Dawley rat model assessed as decrease in number of seizures at high stage (stage 4 and 5) compound infused into hippocampal region and 10 mins later injected with PTZ and measured for 2 hrs post-PTZ stimulation", "assay_type": "functional, organism-based"}, "Rattus norvegicus [13]": {"species_on_record": "Rattus norvegicus", "experiment": "Effect on neuronal network in PTZ-induced epileptic seizures Sprague-Dawley rat model assessed as lowered PSD at gamma wave band compound infused into hippocampal region and 10 mins later injected with PTZ and measured after 2 hrs by power spectral density analysis", "assay_type": "functional, organism-based"}, "Rattus norvegicus [14]": {"species_on_record": "Rattus norvegicus", "experiment": "as §2, with “granular” for “pyramidal”, “DG” for “CA1”", "assay_type": "functional, organism-based"}, "Homo sapiens [15]": {"species_on_record": "Homo sapiens", "experiment": "Inhibition of human BK alpha/human beta-4 E128K mutant expressed in HEK293T cells assessed as K+ fractional outward current at 10 uM at -80 mV holding potential by whole cell patch clamp technique relative to control", "assay_type": "cell-based"}, "[16]": {"target": "T1, KCNMA1/KCNMB4 (Rattus norvegicus)", "experiment": "Inhibition of BK alpha/beta-4 in PTZ-stimulated rat hippocampal pyramidal neurons assessed as appearance of more action potential failures at -80mV holding potential measured after 10 mins during 300pA current injection by whole cell current clamp assay", "assay_type": "protein-complex assay"}, "Rattus norvegicus [17]": {"species_on_record": "Rattus norvegicus", "experiment": "as §2, with “ipsilateral” for “contralateral”, “CA3” for “CA1”", "assay_type": "functional, organism-based"}, "Homo sapiens [18]": {"species_on_record": "Homo sapiens", "experiment": "Inhibition of human BK alpha/human beta4 E122K mutant expressed in HEK293T cells assessed as K+ fractional outward current at 10 uM at -80 mV holding potential by whole cell patch clamp technique relative to control", "assay_type": "cell-based"}, "KCNMA1/KCNMB4": {"target": "KCNMA1/KCNMB4 (Homo sapiens, UniProt Q12791+Q86W47)", "sequence (Q12791 whole entry)": "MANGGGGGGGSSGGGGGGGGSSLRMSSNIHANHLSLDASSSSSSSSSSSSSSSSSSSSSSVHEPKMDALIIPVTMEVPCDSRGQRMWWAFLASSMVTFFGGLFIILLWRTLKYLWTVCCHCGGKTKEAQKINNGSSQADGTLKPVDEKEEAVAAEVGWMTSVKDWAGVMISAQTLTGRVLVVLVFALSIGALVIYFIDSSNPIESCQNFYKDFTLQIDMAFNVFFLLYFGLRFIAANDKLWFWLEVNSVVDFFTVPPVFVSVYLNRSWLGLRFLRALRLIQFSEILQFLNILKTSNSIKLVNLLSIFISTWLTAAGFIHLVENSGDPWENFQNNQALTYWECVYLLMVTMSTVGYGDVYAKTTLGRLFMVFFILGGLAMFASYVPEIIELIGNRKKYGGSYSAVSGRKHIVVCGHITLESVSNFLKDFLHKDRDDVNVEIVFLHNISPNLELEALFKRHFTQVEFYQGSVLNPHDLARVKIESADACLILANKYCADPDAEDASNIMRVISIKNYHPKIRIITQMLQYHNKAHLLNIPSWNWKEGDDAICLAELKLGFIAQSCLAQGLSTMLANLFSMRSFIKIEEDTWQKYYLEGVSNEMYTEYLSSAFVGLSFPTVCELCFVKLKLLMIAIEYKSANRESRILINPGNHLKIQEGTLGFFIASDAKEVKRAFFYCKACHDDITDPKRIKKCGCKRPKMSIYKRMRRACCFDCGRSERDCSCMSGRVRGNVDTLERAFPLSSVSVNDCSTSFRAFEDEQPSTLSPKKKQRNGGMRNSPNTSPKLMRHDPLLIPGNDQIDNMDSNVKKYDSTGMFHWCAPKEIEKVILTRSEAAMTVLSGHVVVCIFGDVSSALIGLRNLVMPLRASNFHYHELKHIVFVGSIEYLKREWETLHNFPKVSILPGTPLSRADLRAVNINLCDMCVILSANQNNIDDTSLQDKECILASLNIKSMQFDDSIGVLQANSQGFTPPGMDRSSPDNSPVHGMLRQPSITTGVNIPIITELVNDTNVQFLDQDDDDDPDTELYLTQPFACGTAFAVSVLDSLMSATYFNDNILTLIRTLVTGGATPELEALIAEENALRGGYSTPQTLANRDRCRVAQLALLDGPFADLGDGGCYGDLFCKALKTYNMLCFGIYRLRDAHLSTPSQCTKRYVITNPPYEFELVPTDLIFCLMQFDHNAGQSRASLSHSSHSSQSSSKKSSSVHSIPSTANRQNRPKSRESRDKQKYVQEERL", "sequence (Q86W47 whole entry)": "as the sequence (Q86W47 whole entry Q124A) above, with A124Q counted along it", "experiment": "Inhibition of human BK alpha/beta4 channel expressed in HEK293T cells assessed as inhibition of K+ outward current fraction at -80 mV holding potential by whole cell patch clamp technique", "assay_type": "cell-based"}, "Rattus norvegicus [19]": {"species_on_record": "Rattus norvegicus", "experiment": "Anticonvulsant activity against PTZ-induced epileptic seizure Sprague-Dawley rat model assessed as mortality rate compound infused into hippocampal region and 10 mins later injected with PTZ and measured for 2 hrs post PTZ-stimulation (reference value: 33.33%)", "assay_type": "functional"}, "Homo sapiens [20]": {"species_on_record": "Homo sapiens", "experiment": "Selectivity ratio of compound Kd for NT-495 fluorophore reagent labelled human BK beta4 Q124A mutant to compound Kd for NT-495 fluorophore reagent labelled human BK beta4 (45 to 166 residues) by microscale thermophoresis assay"}, "[21]": {"target": "T1, KCNMA1/KCNMB4 (Rattus norvegicus)", "experiment": "Inhibition of BK alpha/beta-4 in PTZ-stimulated rat hippocampal pyramidal neurons assessed as slower decay of after hyperpolarization at 300 pA at -80mV holding potential measured after 10 mins by whole cell current clamp assay", "assay_type": "protein-complex assay"}, "[22]": {"target": "T1, KCNMA1/KCNMB4 (Rattus norvegicus)", "experiment": "Inhibition of BK alpha/beta-4 in PTZ-stimulated rat hippocampal pyramidal neurons assessed as larger action potential width at 300 pA current injection at -80mV holding potential measured after 10 mins by whole cell current clamp assay", "assay_type": "protein-complex assay"}, "[23]": {"target": "T1, KCNMA1/KCNMB4 (Rattus norvegicus)", "experiment": "Inhibition of BK alpha/beta-4 in rat hippocampal pyramidal neurons assessed as inhibition of PTZ-induced action potential at -80 mV holding potential at 300 pA current injection measured after 10 mins by whole cell current clamp assay"}, "Rattus norvegicus [24]": {"species_on_record": "Rattus norvegicus", "experiment": "Anticonvulsant activity against PTZ-induced epileptic seizure Sprague-Dawley rat model assessed as duration of seizure compound infused into hippocampal region and 10 mins later injected with PTZ and measured for 2 hrs post PTZ-stimulation (reference value: 376 +/- 76.43 sec)", "assay_type": "functional"}, "Rattus norvegicus [25]": {"species_on_record": "Rattus norvegicus", "experiment": "as §2, with “ipsilateral” for “contralateral”", "assay_type": "functional, organism-based"}, "[26]": {"system": "T2, Calcium-activated potassium channel subunit beta-4 (Homo sapiens), Q86W47 [E122K]", "T2 sequence (whole entry)": "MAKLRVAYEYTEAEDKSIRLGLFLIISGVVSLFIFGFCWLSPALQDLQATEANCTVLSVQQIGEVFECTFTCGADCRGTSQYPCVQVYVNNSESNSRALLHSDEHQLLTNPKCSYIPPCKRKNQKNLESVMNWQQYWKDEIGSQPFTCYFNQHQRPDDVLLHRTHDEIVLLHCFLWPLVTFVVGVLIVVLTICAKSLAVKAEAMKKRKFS", "experiment": "Binding affinity to NT-495 fluorophore reagent labelled human BK beta4 E122K mutant incubated for 30 mins by microscale thermophoresis assay"}, "Rattus norvegicus [27]": {"species_on_record": "Rattus norvegicus", "experiment": "Inhibition of field potential response in PTZ-induced epileptic seizure Sprague-Dawley rat model compound infused into hippocampal region and 10 mins later injected with PTZ and measured after 2 hrs by microarray electrode based analysis", "assay_type": "functional, organism-based"}, "Rattus norvegicus [28]": {"species_on_record": "Rattus norvegicus", "experiment": "Effect on neuronal network in PTZ-induced epileptic seizures Sprague-Dawley rat model assessed as reduced total PSD frequency waves compound infused into hippocampal region and 10 mins later injected with PTZ and measured after 2 hrs by power spectral density analysis", "assay_type": "functional, organism-based"}}, "note": "The source made the active and inactive calls. The rule behind the calls is not given here.", "data": [{"smiles": "CC[C@H](C)[C@H](NC(=O)[C@H](CC(C)C)NC(=O)CNC(=O)[C@H](Cc1ccccc1)NC(=O)[C@H](CO)NC(=O)CN)C(=O)N[C@@H](CC(=O)O)C(=O)N[C@H](C(=O)N[C@@H](CCCCN)C(=O)N[C@H]1CSSC[C@@H]2NC(=O)[C@H](CCCCN)NC(=O)CNC(=O)[C@H](CCC(N)=O)NC(=O)CNC(=O)[C@H](CO)NC(=O)CNC(=O)[C@H]([C@@H](C)O)NC(=O)[C@H](C(C)C)NC(=O)[C@H](CCCCN)NC(=O)[C@H](CCCCN)NC(=O)[C@@H]3CSSC[C@@H](C(=O)N[C@@H](Cc4ccc(O)cc4)C(=O)O)N[C@@H](CCCNC(=N)N)C(=O)[C@H](CSSC[C@H](NC(=O)[C@H](CCC(=O)O)NC(=O)[C@H](CO)NC(=O)[C@H](CO)NC(=O)[C@H](C)NC(=O)[C@H](Cc4ccccc4)NC1=O)C(=O)N[C@@H](Cc1c[nH]c4ccccc14)C(=O)N[C@@H]([C@@H](C)O)C(=O)N[C@@H](C)C(=O)N3)N[C@@H](CCC(N)=O)C(=O)NC(=O)[C@H](CC(N)=O)NC(=O)[C@H](CC(N)=O)NC(=O)[C@H](CCC(N)=O)NC2=O)C(C)C", "values": [{"measurement": "inhibition", "setting": "Rattus norvegicus [1]", "value": "Active"}, {"measurement": "inhibition", "setting": "[2]", "value": "Active"}, {"measurement": "Activity", "setting": "Rattus norvegicus [3]", "value": "Active"}, {"measurement": "Kd", "setting": "[4]", "value": 975, "unit": "µM"}, {"measurement": "Activity", "setting": "Rattus norvegicus [5]", "value": "Active"}, {"measurement": "inhibition", "setting": "[6]", "value": "Active"}, {"measurement": "inhibition", "setting": "Rattus norvegicus [7]", "value": "Active"}, {"measurement": "inhibition", "setting": "Rattus norvegicus [8]", "value": "Active"}, {"measurement": "Ratio", "setting": "Homo sapiens [9]", "value": 0.94}, {"measurement": "Activity", "setting": "Rattus norvegicus [10]", "value": "Active"}, {"measurement": "inhibition", "setting": "[11]", "value": "Active"}, {"measurement": "Activity", "setting": "Rattus norvegicus [12]", "value": "Active"}, {"measurement": "Activity", "setting": "Rattus norvegicus [13]", "value": "Active"}, {"measurement": "Activity", "setting": "Rattus norvegicus [14]", "value": "Active"}, {"measurement": "Ratio", "setting": "Homo sapiens [15]", "value": 0.75}, {"measurement": "inhibition", "setting": "[16]", "value": "Active"}, {"measurement": "Activity", "setting": "Rattus norvegicus [17]", "value": "Active"}, {"measurement": "Ratio", "setting": "Homo sapiens [18]", "value": 0.88}, {"measurement": "IC50", "setting": "KCNMA1/KCNMB4", "value": 0.602, "unit": "µM"}, {"measurement": "mortality", "setting": "Rattus norvegicus [19]", "value": 0, "unit": "%"}, {"measurement": "Selectivity ratio", "setting": "Homo sapiens [20]", "value": 2}, {"measurement": "inhibition", "setting": "[21]", "value": "Active"}, {"measurement": "inhibition", "setting": "[22]", "value": "Active"}, {"measurement": "inhibition", "setting": "[23]", "value": "Active"}, {"measurement": "Time", "setting": "Rattus norvegicus [24]", "value": 198, "unit": "s"}, {"measurement": "Activity", "setting": "Rattus norvegicus [25]", "value": "Active"}, {"measurement": "Activity", "setting": "[26]", "value": "inactive"}, {"measurement": "inhibition", "setting": "Rattus norvegicus [27]", "value": "Active"}, {"measurement": "inhibition", "setting": "Rattus norvegicus [28]", "value": "Active"}]}]}
